Consider ten molecules from patent publication US20130331415A1, “COMPOSITIONS COMPRISING WNT INHIBITORS FOR TREATING CANCER” (priority 2010, published 2013).

The term viability denotes the share of living cells, or the viability signal relative to a control.

In data set [1] the test system is OPM-2 myeloma cells. Description: Cell viability by DiOC6 staining, flow cytometry: OPM-2. The format is cell-based, human. The settings on record: for viability of OPM-2 cells, single drug or combination: three days, EA or CIC 30 μM, thalidomide 40 μM, lenalidomide 12 μM. Here is the method:
(§1) The lymphoma cell lines LAM-53, SU-DHL-4, Daudi and Raji, as well as the myeloma cell lines OPM-2, RPMI-8226 and U-266 (all obtained from DSMZ, Collection of Microorganisms and Cell Culture, Braunschweig, Germany) were cultured in RPMI-1640 Medium consisting of 10% heat-inactivated fetal calf serum (FCS, Invitrogen, Karlsruhe, Germany), 2.5% 1 M HEPES, and 1× penicillin/streptomycin (all from PAA Laboratories GmbH, Cölbe, Germany). Cells were cultured at a density of 3.3×10^5 cells ml^−1 andincubated at 37° C. with 5% CO2 and 95% humidity.
(§2) After addition of 5 μl PI-solution (100 μg/ml) the cells were analyzed by FACS.
(§3) Experiments were performed as reported recently.
On the technique in general: Flow cytometry measures light scatter and fluorescence of single cells or particles in a stream.

The subject of data set [2] is lymphoma cell lines (OCI-Ly8 LAM53, SU-DHL-4 and Raji). The data set can be described thus: Viability of lymphoma cell lines in vitro. The format is cell-based, human. As to the method:
as §2, §3

In data set [3] the test system is RPMI 8226 myeloma cells. Description: Cell viability by DiOC6 staining, flow cytometry: RPMI 8226. To be noted: three days; EA or CIC 30 μM; thalidomide 20 μM; lenalidomide 80 μM. The data set is classed as cell-based, human. As to the method: as §1, §2, §3
For data set [4], the system named is PBL. Description: Cell viability by DiOC6 staining, flow cytometry: PBL of healthy individuals. The format is cell-based, human. Here is the method: as §2, §3
The test system of data set [5] is PBMC. Description: Cell viability by DiOC6 staining, flow cytometry: PBMC of healthy individuals. The data set is classed as cell-based, human. As to the method: as §2
PBMCs were isolated from blood of healthy donors by Ficoll-Hypaque density gradient centrifugation. Blood from buffy coats was mixed 1:2 with PBS/1% BSA (both PAA, Cölbe, Germany) and used for a ficoll gradient (LymphoPrep, PAA, Cölbe, Germany). After the centrifugation at 800 g for 30 minutes, the leukocyte layer was removed and transferred to new tubes.
as §3

The subject of data set [6] is U266 myeloma cells. The data set can be described thus: Cell viability by DiOC6 staining, flow cytometry: U266. The format is cell-based, human. The settings on record: three days; EA or CIC 30 μM; thalidomide 160 μM. As to the method: as §1, §2, §3
Data set [7] concerns primary myeloma cells. Description: Viability of primary myeloma cells from bone marrow of patients. The data set is classed as cell-based, human. The settings on record: three days; preliminary data. As to the method: Bone marrow samples from patients with myeloma were taken after informed consent, single cell suspensions generated and cells ficolled. Cells were incubated with or without EA for three days and measured for viability.
Results represent data from two separate experiments. Data are shown as mean.
Bone marrow samples from patients with myeloma were taken after informed consent, single cell suspensions generated and cells ficolled. Cells were incubated with or without CIC for three days and measured for viability.
Bone marrow samples from patients with myeloma were taken after informed consent, single cell suspensions generated and cells ficolled. Cells were incubated with or without GF for three days and measured for viability.

Data set [8] concerns primary CLL cells. The settings on record: cited from earlier work.
The test system of data set [9] is Wnt/beta catenin signaling. To be noted: 960 compounds screened; cited from earlier work.
Data set [10] relates to MPC11 myeloma cells. The format is in vivo. To be noted: for animals in which solid tumor nodules formed: gavage 450 μg per animal daily; for overall survival compared to control group: oral 450 μg/day, 750 μg lenalidomide/day in combination. As to the method: Mice were treated orally with 450 μg/day EA and 750 μg lenalidomide/day, respectively. Overall survival and tumor growth were measured. Tumor volume was calculated as follows: volume=length×width^2×0.52.
Mice were treated orally with 450 μg/day CIC and 750 μg lenalidomide/day, respectively. Overall survival and tumor growth were measured. Tumor volume was calculated as follows: volume=length×width^2×0.52.
Mice were treated orally with 450 μg/day PO. Overall survival and tumor growth were measured. Tumor volume was calculated as follows: volume=length×width^2×0.52.

For data set [11] the following is noted: cited from earlier work.
The subject of data set [12] is SU-DHL-4 lymphoma cells. The data set can be described thus: Cell viability by DiOC6 staining, flow cytometry: SU-DHL-4. To be noted: Homo sapiens, EA 30 μM, after 72 h, read-out: relative viability, SU-DHL-4. The data set is classed as cell-based. Here is the method:
as §1, §2, §3

Data set [13] has as its system OCI-Ly8 LAM53 lymphoma cells. The data set can be described thus: Cell viability by DiOC6 staining, flow cytometry: OCI-Ly8 LAM53. The data set is classed as cell-based. The settings on record: Homo sapiens, EA 30 μM, after 72 h, read-out: relative viability, LAM-53. As to the method:
as §1, §2, §3

The subject of data set [14] is Raji lymphoma cells. Description: Cell viability by DiOC6 staining, flow cytometry: Raji. The data set is classed as cell-based, human. To be noted: for viability of Raji cells, single drug or combination: EA or CIC 30 μM, data not shown. Here is the method:
as §1, §2, §3

Data set [15] deals with Daudi lymphoma cells. Description: Cell viability by DiOC6 staining, flow cytometry: Daudi. The format is cell-based, human. To be noted: EA or CIC 30 μM; data not shown. Here is the method: as §1, §2
The lymphoma cell lines LAM-53, SU-DHL-4, Daudi and Raji, as well as the myeloma cell lines OPM-2, RPMI-8226 and U-266 (all obtained from DSMZ, Collection of Microorganisms and Cell Culture, Braunschweig, Germany) were cultured in RPMI-1640 Medium consisting of 10% heat-inactivated fetal calf serum (FCS, Invitrogen, Karlsruhe, Germany), 2.5% 1 M HEPES, and 1× penicillin/streptomycin (all from PAA Laboratories GmbH, Cölbe, Germany). Cells were cultured at a density of 3.3×10^5 cells ml^−1 and incubated at 37° C. with 5% CO2 and 95% humidity.
as §3

Data set [16] deals with myeloma cells (OPM-2, U266 and RPMI 8226). The data set can be described thus: Viability of myeloma cell lines, mean IC50 over OPM-2, U266 and RPMI 8226. The data set is classed as cell-based, human. As to the method: A mean IC50 value in myeloma cells was determined using the mean of the IC50 results determined in OPM-2, U266 and RPMI 8226 cells.

On to `Nc1cccc2c1CN(C1CCC(=O)NC1=O)C2=O` (racemic) [lenalidomide, (RS)-3-(4-amino-1-oxo-3H-isoindol-2-yl)piperidine-2,6-dione], for which the “viability of OPM-2 cells, single drug or combination” value (from here on “viability of OPM-2 cells”) in data set [1] is recorded as “significant decrease in viability”. Further, in data set [2], the “viability of lymphoma cell lines in vitro” value was “no effect”. Moreover, in data set [3], the “viability of RPMI-8226 cells, single drug or combination” value is on record as “significant decrease in viability”. For the same molecule, the “effect on normal PBL” value in data set [4] is “marginal”. For the same molecule, the “effect on normal PBMC” value in data set [5] is on record as “marginal”.
As for `O=C1CCC(N2C(=O)c3ccccc3C2=O)C(=O)N1` (racemic) [thalidomide, (RS)-2-(2,6-dioxopiperidin-3-yl)-1H-isoindole-1,3(2H)-dione], in [1], the “viability of OPM-2 cells” value was “significant decrease in viability”. Further, the “viability of lymphoma cell lines in vitro” value in data set [2] was “no effect”. In addition, the “viability of RPMI-8226 cells, single drug or combination” value in data set [3] is listed as “significant decrease in viability”. Further, in data set [4], the “effect on normal PBL” value was “no effect”. The “effect on normal PBMC” value in data set [5] was “no effect”. For the same molecule, in [6], the “viability of U-266 cells, single drug or combination” value was “significant decrease in viability”.
In the case of `Cc1cc(C2CCCCC2)n(O)c(=O)c1` [CIC, ciclopirox olamine], the “viability of lymphoma cell lines in vitro” value in [2] is “significantly (p<0.05) decreased the viability”. The “growth of primary myeloma cells from bone marrow of patients” value (“growth of primary myeloma cells” for short) in data set [7] is listed as “inhibits the growth”. For the same molecule, the “cell death in primary CLL cells” value in data set [8] is recorded as “selectively induced cell death”. Besides, in [9], the “result of TOPflash reporter screen” value is “Wnt/beta catenin inhibitors”. In addition, in [10] (oral 450 μg/day CIC, 750 μg lenalidomide/day), the “tumor growth compared to control mice” value is given as “significantly reduced”. The “effect on normal PBL” value in [4] is “marginal”. Further, in [5], the “effect on normal PBMC” value is given as “marginal”.
As to `Cc1cc(C2CCCCC2)n(O)c(=O)c1` [Ciclopirox, 6-cyclohexyl-1-hydroxy-4-methyl-1,2-dihydropyridin-2-one], the solubility in methanol entry in [11] is recorded as “soluble”.
Regarding `C=C(CC)C(=O)c1ccc(OCC(=O)O)c(Cl)c1Cl` [EA, 2-[2,3-dichloro-4-(2-methylidenebutanoyl)phenoxy]acetic acid], the “viability of lymphoma cell lines in vitro” value in data set [2] is listed as “significantly (p<0.05) decreased the viability”. Also, the viability at 30 µM in data set [12] was found to be 97.6%; in data set [13] it was 91%; in [14] (Homo sapiens, Raji, EA 30 μM, after 72 h, read-out: relative viability, Raji), 78.9%. Also, the “growth of primary myeloma cells” value in data set [7] is listed as “inhibits the growth”. In [8], the “cell death in primary CLL cells” value is recorded as “selectively induced cell death”. In addition, the “result of TOPflash reporter screen” value in [9] is “Wnt/beta catenin inhibitors”. In [10] (oral 450 μg/day EA, 750 μg lenalidomide/day, p<0.001), the “tumor growth compared to mice treated with lenalidomide alone” value is on record as “significantly reduced”. The solubility in water result in data set [11] was “slightly solube”. For the same molecule, in [11] (e.g. alcohols, chloroform, and benzene), the “solubility in most organic solvents” value is reported as “soluble”.
Turning to `CC(C)C[C@H](NC(=O)[C@H](Cc1ccccc1)NC(=O)c1cnccn1)B(O)O` [bortezomib], the “viability of OPM-2 cells” value in data set [1] is recorded as “significant decrease in viability”.
Regarding `COc1cccc2c1C(=O)c1c(O)c3c(c(O)c1C2=O)C[C@@](O)(C(=O)CO)C[C@@H]3O[C@H]1C[C@H](N)[C@H](O)[C@H](C)O1` [doxorubicin], the “viability of Daudi cells, single drug or combination” value in [15] was “significant decrease in viability”. Besides, the “viability of Raji cells, single drug or combination” value in data set [14] was “significant decrease in viability”.
As for `COC1=CC(=O)C[C@@H](C)[C@]12Oc1c(Cl)c(OC)cc(OC)c1C2=O` [griseofulvin, (2S,6′R)-7-chloro-2′,4,6-trimethoxy-6′-methyl-3H,4′H-spiro[1-benzofuran-2,1′-cyclohex[2]ene]-3,4′-dione], the “viability of lymphoma cell lines in vitro” value in data set [2] is “significantly (p<0.05) decreased the viability”. The “growth of primary myeloma cells” value in data set [7] was “inhibits the growth”. For the same molecule, in [10], the “animals in which solid tumor nodules formed” value is 5 of 6 and the “overall survival compared to control group” value is on record as “significantly (p<0.05) longer”. In addition, the “viability of myeloma cell lines in vitro” value in data set [16] is reported as “significantly decreased the viability”.
For `Cc1cc(CC(C)CC(C)(C)C)n(O)c(=O)c1` (stereo not shown) [piroctone olamine], in data set [1] (0.1 uM, three days (FIG. 12)), the “mode of cytotoxic activity” value was “induction of apoptosis”. For the same molecule, in data set [2], the “viability of lymphoma cell lines in vitro” value was “significantly (p<0.05) decreased the viability”. Also, the “growth of primary myeloma cells” value in data set [7] is given as “inhibits the growth”. Also, in data set [10], the “animals in which solid tumor nodules formed” value is reported as 5 of 6 and the “overall survival compared to control group” value is “significantly (p<0.05) longer”. For the same molecule, the “viability of myeloma cell lines in vitro” value in data set [16] is recorded as “significantly decreased the viability”. For the same molecule, the “effect on normal PBL” value in data set [4] is “marginal”.
In the case of rituximab, in [15], the “viability of Daudi cells, single drug or combination” value was “significantly decreased”. In addition, the “viability of Raji cells, single drug or combination” value in data set [14] is reported as “significantly decreased”.
